Assay results from patent publication US4174406A, “Terpenylaminoalkanol fish toxicants” (priority 1977, dated 1979).
Values after ≈ are worked out from the molar mass of the structure shown.

Columns and labels:
Bluegill = assay: Laboratory fish toxicity test (Table 1); format: in vivo, Lepomis macrochirus; conditions: tech, 12 C, soft water
Procedure: (§1) Fish were obtained from state and federal hatcheries and maintained prior to testing by a trained fish culturist. Fish of total length 2-5 cm were used in laboratory tests while for outdoor tests small fish (4-6 cm in length) and larger carp and buffalo (Ictiobus cyprinellus) were used.
(§2) In all tests 10 fish of each were exposed to selective concentrations of the toxicant. Mortalities were observed and recorded at 1,2 and 6 hours on the first day and once daily thereafter, during 96 hour exposure.
(§3) Laboratory tests were also conducted in soft water 12° C. wherein the toxicant was evaluated against fifteen species of fish including both cold and warm water varieties. In Table 1, the LC 50 toxicity values for N-(2-hydroxyethyl) digeranylamine is shown for various species. LC50 is defined as the amount (mg/liter) of toxicant required to kill 50 percent of the particular fish species at 95% confidence interval.

Carp = assay: Outdoor plastic pool test (Table 3); format: in vivo, Cyprinus carpio; conditions: for % kill: 50% formulation (hydrochloride salt); for survival (in words): larger carp (19 cm)
Procedure: (§4) N-(2-hydroxyethyl) digeranylamine was tested as a selective fish toxicant in outdoor pools stocked with various fish species and lined with black plastic using 50% water soluble formulations (hydrochloride salt). The formulation was added to each of four pools of 4,000-liter capacity at concentrations of 0.10, 0.15, 0.20, and 0.30 mg/liter. Another pool containing the same number, size, and species of fish served as a control. The test water had algal blooms, a pH of about 8.5, and a total hardness of about 200 mg/liter as CaCo3. The temperature was cool enough (15°-16°C.) to permit the use of trout.
as §1, §2
(§5) Outdoor pool tests were conducted using 50% formulation of the toxicant N-(2-hydroxyethyl) digeranylamine as indicated in Example 8. […] If selective control of white sucker and common carp is desired in an environment which includes rainbow trout, one should employ an effective concentration of toxicant which is at least as great as 0.05 mg/liter but less than 0.1 mg/liter. As a practical fishery practice in the northern United States and Canada, rainbow trout are not usually stocked in bodies of water containing the common carp species; the habitat conditions including water temperature and available oxygen of these species are usually quite different. Common carp and rainbow trout have quite different oxygen and temperature requirements and these differences generally preclude both species cohabitating under natural conditions. In this case the useful range to control common carp and white sucker can be much broader, i.e. 0.1 to 0.3 mg/liter.

Smallmouth bass = assay: Laboratory fish toxicity test (Table 1); format: in vivo, Micropterus dolomieui; conditions: tech, 12 C, soft water
Procedure: as §1, §2, §3

Fathead minnow [1] = assay: Outdoor plastic pool test (Table 3); format: in vivo, Pimephales promelas; conditions: for % kill: 96 hour, 50% formulation (hydrochloride salt)
Procedure: as §4, §1, §2, §5

Green sunfish = assay: Influence of pH on toxicity to green sunfish in soft water (Table 4); format: in vivo, Lepomis cyanellus; conditions: tech, 12 C
Procedure: To determine the influence of pH of the water used on the toxicity of the terpenylaminoalkanols evaluated, experiments were conducted with green sunfish (Lepomis cyanellus) using soft water at 12° C. and chemically buffered over the range of pH 6 to pH 9.

Grass carp = assay: Outdoor plastic pool test (Table 3); format: in vivo, Ctenopharyngodon idella; conditions: for % kill: 96 hour, 50% formulation (hydrochloride salt)
Procedure: as §4, §1, §2, §5

White sucker = assay: Outdoor plastic pool test (Table 3); format: in vivo, Catostomus commersoni; conditions: for % kill: 96 hour, 50% formulation (hydrochloride salt); for survival (in words): white suckers
Procedure: as §4, §1, §2, §5

Backswimmer = assay: Static bioassay in invertebrates (Table 2); format: in vivo, Notonecta sp.; conditions: tech, 17 C, soft reconstituted water 42 mg/l hardness
Procedure: The effect of the various toxicants on common invertebrate species was determined in a static test conducted 17° C. The invertebrates tested were collected from natural populations or purchased from commercial suppliers. They were held in soft water in fiberglass tanks in the laboratory or in outdoor plastic swimming pools. Mortality was observed during holding, and only healthy organisms were used for the toxicity tests. At least 10 organisms of nine species were exposed to each concentration in static tests.

Fathead minnow [2] = assay: Laboratory fish toxicity test (Table 1); format: in vivo, Pimephales promelas; conditions: tech, 12 C, soft water
Procedure: as §1, §2, §3

[3] = 96 hours, listed as N-(2-hydroxyethyl) Digeranylamine, 5760 min

CC(C)=CCC/C(C)=C/CN(C/C=C(\C)CCC=C(C)C)CCO [N-(2-hydroxyethyl) digeranylamine]
LC50 (Bluegill; 3 hours): 1.56 µg/mL (≈ 4.68 µM)
LC50 (Bluegill; 6 hours): 1.13 µg/mL (≈ 3.39 µM)
LC50 (Bluegill; 24 hours): 0.720 µg/mL (≈ 2.16 µM)
LC50 (Bluegill; 96 hours, 5760 min): 0.72 µg/mL (≈ 2.16 µM)
LC50 (Bluegill; [3]): 0.720 µg/mL (≈ 2.16 µM)
% kill (Carp; carp (large), 0.10 mg/l, 96 hour): 27%
% kill (Carp; carp (large), 0.15 mg/l, 96 hour): 66%
% kill (Carp; carp (large), 0.20 mg/l, 96 hour): 100%
% kill (Carp; carp (large), 0.30 mg/l, 96 hour): 100%
% kill (Carp; carp (small), 0.10 mg/l, 96 hour): 100%
% kill (Carp; carp (small), 0.15 mg/l, 96 hour): 100%
% kill (Carp; carp (small), 0.20 mg/l, 96 hour): 100%
% kill (Carp; carp (small), 0.30 mg/l, 96 hour): 100%
survival (in words) (Carp; 0.2 mg/liter or higher): none survived
survival (in words) (Carp; 0.10 and 0.15 mg/liter): Some white suckers and larger carp (19 cm) survived
kill (in words) (Carp; small common carp (4-6 cm), above 0.10 mg/l, 96 hour): completely eliminated at all concentrations above 0.10 mg/l
LC50 (Smallmouth bass; 3 hours): 1.36 µg/mL (≈ 4.08 µM)
LC50 (Smallmouth bass; 6 hours): 0.480 µg/mL (≈ 1.44 µM)
LC50 (Smallmouth bass; 24 hours): 0.420 µg/mL (≈ 1.26 µM)
LC50 (Smallmouth bass; 96 hours, 5760 min): 0.37 µg/mL (≈ 1.11 µM)
LC50 (Smallmouth bass; [3]): 0.237 µg/mL (≈ 0.711 µM)
% kill (Fathead minnow [1]; 0.10 mg/l): 0%
% kill (Fathead minnow [1]; 0.15 mg/l): 10%
% kill (Fathead minnow [1]; 0.20 mg/l): 10%
% kill (Fathead minnow [1]; 0.30 mg/l): 80%
survival (in words) (Fathead minnow [1]; fathead minnows, 0.30 mg/liter and lower, 50% formulation): died at 0.30 mg/liter of toxicant, but all survived lower concentrations
LC50 (Green sunfish; pH 6.0, 3 hours): 6.34 µg/mL (≈ 19 µM)
LC50 (Green sunfish; pH 6.0, 6 hours): 5.00 µg/mL (≈ 15 µM)
LC50 (Green sunfish; pH 6.0, 24 hours): 2.84 µg/mL (≈ 8.51 µM)
LC50 (Green sunfish; pH 6.0, 96 hours): 1.85 µg/mL (≈ 5.55 µM)
LC50 (Green sunfish; pH 7.5, 3 hours): 2.47 µg/mL (≈ 7.4 µM)
LC50 (Green sunfish; pH 7.5, 6 hours): 1.64 µg/mL (≈ 4.92 µM)
LC50 (Green sunfish; pH 7.5, 24 hours): 1.00 µg/mL (≈ 3 µM)
LC50 (Green sunfish; pH 7.5, 96 hours): 0.829 µg/mL (≈ 2.49 µM)
LC50 (Green sunfish; pH 8.0, 24 hours): 0.520 µg/mL (≈ 1.56 µM)
LC50 (Green sunfish; pH 8.0, 96 hours): 0.520 µg/mL (≈ 1.56 µM)
LC50 (Green sunfish; pH 9.0, 3 hours): 0.870 µg/mL (≈ 2.61 µM)
LC50 (Green sunfish; pH 9.0, 24 hours): 0.360 µg/mL (≈ 1.08 µM)
LC50 (Green sunfish; pH 9.0, 96 hours): 0.268 µg/mL (≈ 0.803 µM)
% kill (Grass carp; 0.10 mg/l): 0%
% kill (Grass carp; 0.15 mg/l): 0%
% kill (Grass carp; 0.20 mg/l): 0%
% kill (Grass carp; 0.30 mg/l): 0%
survival (in words) (Grass carp; grass carp, 0.3 mg/liter, 50% formulation): complete survival
% kill (White sucker; 0.10 mg/l): 20%
% kill (White sucker; 0.15 mg/l): 70%
% kill (White sucker; 0.20 mg/l): 100%
% kill (White sucker; 0.30 mg/l): 100%
survival (in words) (White sucker; 0.2 mg/liter or higher): none survived
survival (in words) (White sucker; 0.10 and 0.15 mg/liter): Some white suckers and larger carp (19 cm) survived
LC50 (Backswimmer; 1 hour): 9.15 µg/mL (≈ 27.4 µM)
LC50 (Backswimmer; 3 hour): 8.35 µg/mL (≈ 25 µM)
LC50 (Backswimmer; 6 hours): 8.30 µg/mL (≈ 24.9 µM)
LC50 (Backswimmer; 28 hours): 4.90 µg/mL (≈ 14.7 µM)
LC50 (Backswimmer; 96 hours): 3.45 µg/mL (≈ 10.3 µM)
LC50 (Fathead minnow [2]; 6 hours): 1.55 µg/mL (≈ 4.65 µM)
LC50 (Fathead minnow [2]; 24 hours): 0.560 µg/mL (≈ 1.68 µM)
LC50 (Fathead minnow [2]; 96 hours): 0.303 µg/mL (≈ 0.908 µM)
